Measurements: patent US20240270762A1, “PENICILLIN-BINDING PROTEIN INHIBITORS” (priority 2021, published 2024)
≈ marks a conversion by molar mass, not a printed value.

Columns and labels:
[1] = tested on: P. aeruginosa ATCC 35151; experiment: microbe, parasite or virus in culture; assay type: cell-based; conditions: Pseudomonas aeruginosa, ATCC35151, read-out: Minimum inhibitory concentration, P. aeruginosa ATCC 35151
[2] = tested on: A. baumannii CDC-0036; experiment: microbe, parasite or virus in culture; assay type: cell-based; conditions: Acinetobacter baumannii, CDC0036, read-out: MIC, A. baumannii CDC-0036
[3] = tested on: A. baumannii CDC-0033; experiment: microbe, parasite or virus in culture; assay type: cell-based; conditions: Acinetobacter baumannii, CDC0033, read-out: MIC, A. baumannii CDC-0033
[4] = target: T1, PBP3 from Pseudomonas aeruginosa (PAO1) (Pseudomonas aeruginosa, UniProt G3XD46); experiment: Bocillin-FL fluorescence polarization competition binding, P. aeruginosa PBP3; conditions: Binding affinity to P. aeruginosa PBP3; fluorescence polarization competition binding assay using Bocillin-FL; read-out: P. aeruginosa PBP3 Potency
T1 construct: made in house
How it was run: (§1)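 Purified PBP was preincubated with inhibitor (E. coli PBP3 1.5 μM, 30 min; P. aeruginosa PBP3 0.75 μM, A. baumannii PBP3 0.2 μM and PBP1a 1 μM, 15 min), then Bocillin-FL (0.1 μM; 0.05 μM for PBP1a) added and FP read up to 60 min. EC50 = 50% loss of bound probe.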

[5] = target: T2, PBP3 from Acinetobacter baumannii (ATCC 19606) (Acinetobacter baumannii, UniProt A0ABX6CK25); experiment: Bocillin-FL fluorescence polarization competition binding, A. baumannii PBP3; conditions: fluorescence polarization competition binding assay using Bocillin-FL; read-out: A. baumannii PBP3 Potency
T2 sequence (A0ABX6CK25 64-610): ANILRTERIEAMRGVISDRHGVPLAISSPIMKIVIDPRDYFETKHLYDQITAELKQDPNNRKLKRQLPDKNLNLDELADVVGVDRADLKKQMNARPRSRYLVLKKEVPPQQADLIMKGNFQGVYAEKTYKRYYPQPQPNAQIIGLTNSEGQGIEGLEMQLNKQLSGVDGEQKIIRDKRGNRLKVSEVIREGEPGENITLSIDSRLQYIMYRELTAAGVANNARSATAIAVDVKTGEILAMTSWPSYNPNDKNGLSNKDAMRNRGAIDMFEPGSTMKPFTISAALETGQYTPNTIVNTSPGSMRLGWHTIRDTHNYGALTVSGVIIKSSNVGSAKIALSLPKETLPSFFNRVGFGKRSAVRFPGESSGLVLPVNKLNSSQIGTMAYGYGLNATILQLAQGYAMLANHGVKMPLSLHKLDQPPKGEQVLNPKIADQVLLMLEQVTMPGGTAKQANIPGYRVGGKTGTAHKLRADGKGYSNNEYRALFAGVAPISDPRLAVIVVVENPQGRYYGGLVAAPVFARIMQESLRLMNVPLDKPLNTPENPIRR
How it was run: as §1

[6] = tested on: A. baumannii 1258916; experiment: microbe, parasite or virus in culture; assay type: cell-based, Acinetobacter baumannii; conditions: Acinetobacter baumannii, 1258916, read-out: MIC, A. baumannii 1258916
[7] = tested on: P. aeruginosa CDC-0110; experiment: microbe, parasite or virus in culture; assay type: cell-based; conditions: Pseudomonas aeruginosa, CDC0110, read-out: Minimum inhibitory concentration, P. aeruginosa CDC-0110
[8] = tested on: P. aeruginosa CDC-0095; experiment: microbe, parasite or virus in culture; assay type: cell-based; conditions: Pseudomonas aeruginosa, CDC0095, read-out: Minimum inhibitory concentration, P. aeruginosa CDC-0095
[9] = tested on: P. aeruginosa (ΔmexAB-oprM); experiment: Broth microdilution MIC in iron-depleted CAMHB (IDM); assay type: cell-based; conditions: Pseudomonas aeruginosa; iron-depleted CAMHB (IDM); […]; read-out: Minimum inhibitory concentration, P. aeruginosa ΔmexAB-oprM

T1 sequence (G3XD46 whole entry): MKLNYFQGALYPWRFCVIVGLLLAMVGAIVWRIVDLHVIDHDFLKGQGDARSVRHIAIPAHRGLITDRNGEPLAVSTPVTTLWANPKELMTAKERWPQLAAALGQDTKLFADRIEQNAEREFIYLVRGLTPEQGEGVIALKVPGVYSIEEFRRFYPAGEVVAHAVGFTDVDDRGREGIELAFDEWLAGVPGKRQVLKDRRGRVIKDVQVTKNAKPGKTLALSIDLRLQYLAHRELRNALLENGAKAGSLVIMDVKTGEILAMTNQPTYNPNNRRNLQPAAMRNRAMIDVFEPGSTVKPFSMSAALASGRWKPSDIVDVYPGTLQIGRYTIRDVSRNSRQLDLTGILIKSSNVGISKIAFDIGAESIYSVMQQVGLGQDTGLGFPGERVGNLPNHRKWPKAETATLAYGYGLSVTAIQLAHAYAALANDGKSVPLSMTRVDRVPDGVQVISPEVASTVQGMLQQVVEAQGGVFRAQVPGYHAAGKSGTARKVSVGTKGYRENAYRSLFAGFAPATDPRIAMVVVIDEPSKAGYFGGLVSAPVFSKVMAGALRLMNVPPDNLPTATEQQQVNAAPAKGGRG

SMILES	MIC [1]	MIC [2]	MIC [3]	IC50 [4]	IC50 [5]	MIC [6]	MIC [7]	MIC [8]	MIC [9]
O=C(O)c1c(F)ccc2c1OB(O)[C@@H](NC(=O)[C@H](NC(=O)N1CCN(C3CCN(C(=O)Nc4cc(O)cc(F)c4)CC3)C1=O)c1cc(F)c(O)c(O)c1Cl)C2 (single isomer, unassigned) [Example 450]	< 1 µg/mL	< 1 µg/mL	< 1 µg/mL	< 10 µM	< 10 µM	< 1 µg/mL	< 1 µg/mL	< 1 µg/mL	< 1 µg/mL
O=C(O)c1c(F)ccc2c1OB(O)[C@@H](NC(=O)[C@H](NC(=O)N1CCN(C3CCN(C(=O)Nc4cc(O)ccc4F)CC3)C1=O)c1cc(F)c(O)c(O)c1Cl)C2 (single isomer, unassigned) [Example 451]	< 1 µg/mL	< 1 µg/mL	< 1 µg/mL	< 10 µM	< 10 µM	< 1 µg/mL	< 1 µg/mL	< 1 µg/mL	< 1 µg/mL
O=C(O)c1c(F)ccc2c1OB(O)[C@@H](NC(=O)[C@H](NC(=O)N1CCN(C3CCN(C(=O)Nc4c(F)ccc(O)c4F)CC3)C1=O)c1cc(F)c(O)c(O)c1Cl)C2 (single isomer, unassigned) [Example 454]	< 1 µg/mL	< 1 µg/mL	2 to 4 µg/mL (≈ 2.47 to 4.95 µM)	< 10 µM	< 10 µM	< 1 µg/mL	< 1 µg/mL	2 to 4 µg/mL (≈ 2.47 to 4.95 µM)	< 1 µg/mL
O=C(O)c1c(F)ccc2c1OB(O)[C@@H](NC(=O)[C@H](NC(=O)N1CCN(C3CCN(C(=O)Nc4c(F)ccc(O)c4Cl)CC3)C1=O)c1cc(F)c(O)c(O)c1Cl)C2 (single isomer, unassigned) [Example 455]	< 1 µg/mL	< 1 µg/mL	< 1 µg/mL	< 10 µM	< 10 µM	< 1 µg/mL	< 1 µg/mL	< 1 µg/mL	< 1 µg/mL
O=C(O)c1c(F)ccc2c1OB(O)[C@@H](NC(=O)[C@@H](NC(=O)N1CCN(C3CCN(C(=O)c4ccc(O)cc4)CC3)C1=O)c1cc(F)c(O)c(O)c1Cl)C2 (single isomer, unassigned) [Example 462]	< 1 µg/mL	32 to 64 µg/mL (≈ 42.2 to 84.4 µM)	32 to 64 µg/mL (≈ 42.2 to 84.4 µM)	10 to 50 µM	< 10 µM	32 to 64 µg/mL (≈ 42.2 to 84.4 µM)	8 to 16 µg/mL (≈ 10.6 to 21.1 µM)	32 to 64 µg/mL (≈ 42.2 to 84.4 µM)	2 to 4 µg/mL (≈ 2.64 to 5.28 µM)
O=C(O)c1c(F)ccc2c1OB(O)[C@@H](NC(=O)[C@H](NC(=O)N1CCN(C3CCN(C(=O)c4ccc(O)cc4)CC3)C1=O)c1cc(F)c(O)c(O)c1Cl)C2 (single isomer, unassigned) [Example 463]	< 1 µg/mL	< 1 µg/mL	< 1 µg/mL	< 10 µM	< 10 µM	< 1 µg/mL	< 1 µg/mL	< 1 µg/mL	< 1 µg/mL
O=C(O)c1cccc2c1OB(O)[C@@H](NC(=O)C(NC(=O)N1CCN(Cc3cc(F)c(O)c(O)c3Cl)C(=O)C1=O)c1ccc(P(=O)(O)O)cc1)C2 (stereo partly drawn) [Example 164, (3R)-3-(2-(4-(2-chloro-5-fluoro-3,4-dihydroxybenzyl)-2,3-dioxopiperazine-1-carboxamido)-2-(4-phosphonophenyl)acetamido)-2-hydroxy-3,4-dihydro-2H-benzo[e][1,2]oxaborinine-8-carboxylic acid]	< 1 µg/mL	< 1 µg/mL	< 1 µg/mL	< 10 µM	< 10 µM	< 1 µg/mL	< 1 µg/mL	< 1 µg/mL	< 1 µg/mL
O=C(O)c1c(F)ccc2c1OB(O)[C@@H](NC(=O)[C@H](NC(=O)N1CCN(Cc3ccc(O)c(O)c3Cl)C(=O)C1=O)c1ccc(P(=O)(O)O)c(F)c1F)C2 [Example 166, (R)-3-((R)-2-(4-(2-chloro-3,4-dihydroxybenzyl)-2,3-dioxopiperazine-1-carboxamido)-2-(2,3-difluoro-4-phosphonophenyl)acetamido)-7-fluoro-2-hydroxy-3,4-dihydro-2H-benzo[e][1,2]oxaborinine-8-carboxylic acid]	< 1 µg/mL	< 1 µg/mL	< 1 µg/mL	< 10 µM	< 10 µM	< 1 µg/mL	< 1 µg/mL	< 1 µg/mL	< 1 µg/mL
O=C(NCCS(=O)(=O)N1CCN(C(=O)N[C@H](C(=O)N[C@H]2Cc3ccc(F)c(C(=O)O)c3OB2O)c2ccc(P(=O)(O)O)cc2)C1=O)c1ccc(O)c(O)c1Cl [Example 167, (R)-3-((S)-2-(3-((2-(2-chloro-3,4-dihydroxybenzamido)ethyl)sulfonyl)-2-oxoimidazolidine-1-carboxamido)-2-(4-phosphonophenyl)acetamido)-7-fluoro-2-hydroxy-3,4-dihydro-2H-benzo[e][1,2]oxaborinine-8-carboxylic acid]	32 to 64 µg/mL (≈ 38.7 to 77.3 µM)	> 128 µg/mL	> 128 µg/mL	50 to 250 µM	10 to 50 µM	> 128 µg/mL	> 128 µg/mL	> 128 µg/mL	> 128 µg/mL
O=C(O)c1c(F)ccc2c1OB(O)[C@@H](NC(=O)[C@H](NC(=O)N1CCN(C3CCN(C(=O)c4ccc(F)c(O)c4Cl)CC3)C1=O)c1cc(F)c(O)c(O)c1Cl)C2 [Example 438, (R)-3-((R)-2-(3-(1-(2-chloro-4-fluoro-3-hydroxybenzoyl)piperidin-4-yl)-2-oxoimidazolidine-1-carboxamido)-2-(2-chloro-5-fluoro-3,4-dihydroxyphenyl)acetamido)-7-fluoro-2-hydroxy-3,4-dihydro-2H-benzo[e][1,2]oxaborinine-8-carboxylic acid]	< 1 µg/mL	< 1 µg/mL	< 1 µg/mL	< 10 µM	< 10 µM	< 1 µg/mL	< 1 µg/mL	< 1 µg/mL	< 1 µg/mL
O=C(O)c1c(F)ccc2c1OB(O)[C@@H](NC(=O)[C@H](NC(=O)N1CCN(C3CCN(C(=O)Nc4cccc(O)c4)CC3)C1=O)c1cc(F)c(O)c(O)c1Cl)C2 [Example 445, (R)-3-((R)-2-(2-chloro-5-fluoro-3,4-dihydroxyphenyl)-2-(3-(1-((3-hydroxyphenyl)carbamoyl)piperidin-4-yl)-2-oxoimidazolidine-1-carboxamido)acetamido)-7-fluoro-2-hydroxy-3,4-dihydro-2H-benzo[e][1,2]oxaborinine-8-carboxylic acid]	< 1 µg/mL	< 1 µg/mL	2 to 4 µg/mL (≈ 2.59 to 5.18 µM)	< 10 µM	< 10 µM	< 1 µg/mL	< 1 µg/mL	< 1 µg/mL	< 1 µg/mL
O=C(O)c1c(F)ccc2c1OB(O)[C@@H](NC(=O)[C@H](NC(=O)N1CCN(C3CCN(C(=O)Nc4cccc(O)c4Cl)CC3)C1=O)c1cc(F)c(O)c(O)c1Cl)C2 [Example 447, (R)-3-((R)-2-(3-(1-((2-chloro-3-hydroxyphenyl)carbamoyl)piperidin-4-yl)-2-oxoimidazolidine-1-carboxamido)-2-(2-chloro-5-fluoro-3,4-dihydroxyphenyl)acetamido)-7-fluoro-2-hydroxy-3,4-dihydro-2H-benzo[e][1,2]oxaborinine-8-carboxylic acid]	< 1 µg/mL	< 1 µg/mL	< 1 µg/mL	< 10 µM	< 10 µM	< 1 µg/mL	< 1 µg/mL	< 1 µg/mL	< 1 µg/mL
O=C(O)c1c(F)ccc2c1OB(O)[C@@H](NC(=O)C(NC(=O)N1CCN(C3CCN(C(=O)Nc4ccc(F)c(O)c4F)CC3)C1=O)c1cc(F)c(O)c(O)c1Cl)C2 (stereo partly drawn) [Example 452, (3R)-3-(2-(2-chloro-5-fluoro-3,4-dihydroxyphenyl)-2-(3-(1-((2,4-difluoro-3-hydroxyphenyl)carbamoyl)piperidin-4-yl)-2-oxoimidazolidine-1-carboxamido)acetamido)-7-fluoro-2-hydroxy-3,4-dihydro-2H-benzo[e][1,2]oxaborinine-8-carboxylic acid]	< 1 µg/mL	2 to 4 µg/mL (≈ 2.47 to 4.95 µM)	2 to 4 µg/mL (≈ 2.47 to 4.95 µM)	< 10 µM	< 10 µM	< 1 µg/mL	< 1 µg/mL	2 to 4 µg/mL (≈ 2.47 to 4.95 µM)	< 1 µg/mL
